This is an account of results in patent publication US12396961B2, “Compounds and compositions for intracellular delivery of agents” (ModernaTX, Inc., priority 2015, dated 2025).

Entries after “also recorded” stand apart in the source; their conditions may differ. Read-outs that look alike come from different tables or passages of the source.

Series [1] deals with luciferase (Luc) mRNA expression. Kind of series: Luc expression (AUC) in CD-1 mice relative to MC3. Format: in vivo. The following applies: for Lipid/MC3 Luc CD-1 (mice): Luc expression relative to MC3, CD-1 mice. In outline: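 CD-1 mice dosed at 0.5 mpk with nanoparticle compositions carrying luciferase mRNA; total light flux acquired by whole-body luminescent imaging 6 h after administration. Expression referenced to MC3-containing composition.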

A short description of series [2]: Particle size and polydispersity index (Zetasizer Nano ZS). The following applies: for PDI: Table 1, DOPE 40:20:38.5:1.5, Luc mRNA. Format: physicochemical. In a few lines:
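Particle size and polydispersity index were measured by dynamic light scattering on a Zetasizer Nano ZS in 1×PBS. Zeta potential was measured in 15 mM PBS.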

A short description of series [3]: Lipid levels (clearance) in liver and spleen 48 hours after administration. The settings on record: for concentration at 48 h: Sprague-Dawley, rat, intravenous. Format: in vivo, rats. The protocol:
Formulations were administered intravenously to rats (n=3 or 6) at a dosage of 0.2 mg/kg or 0.5 mg/kg (mpk) and hEPO levels measured at 3, 6, and 24 hour time points. After the 48 hour time point, livers and spleens were harvested and frozen.
The amount of lipid in the liver and spleen 48 hours after administration of a nanoparticle composition was also measured. […] In contrast, approximately 60% of doses including MC3 or Compound 22 remained in the liver after 48 hours. Less than 3% of the dose remained in the spleen for each composition tested.

The test system of series [4] is luciferase (Luc) mRNA expression. Put plainly: Expression of Luc in different organs (liver, lung, spleen, femur) 6 hours after intravenous administration. Format: in vivo. The following applies: mice i.v. 0.5 mpk. Here is the method: The efficacy of the nanoparticle compositions presented in Tables 1, la, 17-1, 19-1, 20-1 and 21-1 was further evaluated by measuring the expression of modified luciferase in the liver, lung, spleen, and femur upon administration of a given composition. Formulations were administered intravenously to mice (n=3) at a dosage of 0.5 mpk and bioluminescence measured after 6 hours. The standard MC3 formulation and a PBS control were also tested.

Series [5] relates to hEPO mRNA expression. Kind of series: Expression of hEPO after intravenous administration to rats. Format: in vivo. The settings on record: for hEPO (pg/mL) 3 hours / hEPO (pg/mL) 6 hours / hEPO (pg/mL) 24 hours: Table 6, rats i.v. 0.2 or 0.5 mg/kg. The protocol:
PBS (phosphate buffered saline) is used as control.
Formulations were prepared according to Table 5 and included mRNA encoding hEPO.
[…] After the 48 hour time point, livers and spleens were harvested and frozen.

Series [6] has as its system rats. Put plainly: Tolerability / toxicity in rats dosed i.v. with hEPO mRNA LNP. It is filed as in vivo. The following applies: 2 mg/kg dose.
For series [7], the system named is luciferase (Luc) mRNA expression. Put plainly: Expression of Luc, bioluminescence (total flux) after intravenous administration to mice. Format: in vivo. The protocol: In order to monitor how effectively various nanoparticle compositions deliver therapeutic and/or prophylactic agents to targeted cells, different nanoparticle compositions including a particular therapeutic and/or prophylactic agent (for example, a modified or naturally occurring RNA such as an mRNA) are prepared and administered to rodent populations. Mice are intravenously, intramuscularly, intraarterially, or intratumorally administered a single dose including a nanoparticle composition with a formulation such as those provided in Table 1. In some instances, mice may be made to inhale doses. Dose sizes may range from 0.001 mg/kg to 10 mg/kg, where 10 mg/kg describes a dose including 10 mg of a therapeutic and/or prophylactic agent in a nanoparticle composition for each 1 kg of body mass of the mouse. A control composition including PBS may also be employed.
Upon administration of nanoparticle compositions to mice, dose delivery profiles, dose responses, and toxicity of particular formulations and doses thereof can be measured by enzyme-linked immunosorbent assays (ELISA), bioluminescent imaging, or other methods. For nanoparticle compositions including mRNA, time courses of protein expression can also be evaluated. Samples collected from the rodents for evaluation may include blood, sera, and tissue (for example, muscle tissue from the site of an intramuscular injection and internal tissue); sample collection may involve sacrifice of the animals.
The efficacy of the nanoparticle compositions presented in Tables 1, la, 17-1, 19-1, 20-1 and 21-1 was evaluated with a bioluminescence study. Formulations were administered intravenously to mice (n=6) at a dosage of 0.5 mg/kg (mpk) and bioluminescence measured at 3, 6, and 24 hour time points. The standard MC3 formulation and a PBS control were evaluated for comparison.

In series [8] the test system is LDLr mRNA / Luc expression. Put plainly: Expression (AUC) in LDLr−/− mice relative to KL22. The following applies: Table 7b. It is filed as in vivo.
In series [9] the test system is hEPO mRNA expression. Put plainly: Expression of hEPO in mice (CD-1). The settings on record: hEPO expression relative to MC3, CD-1 mice. Format: in vivo, CD-1 mice. From the text: FIG. 12 is a set of graphs illustrating hEPO expression levels in CD-1 mice dosed with compounds of the disclosure, compared to MC3. PBS is used as control. […] In graphs A-C numbers 1-14 refer to compositions containing the following: 1: Compound 73, 2: Compound 80, 3: Compound 70; 4: Compound 81; 5: Compound 69; 6: Compound 82; 7: Compound 83; 8: Compound 62; 9: Compound 84; 10: Compound 85; 11: Compound 86; 12: Compound 87; 13: MC3; 14: PBS.
FIG. 13 is a graph showing hEPO levels (pg/mL) in CD-1 mice up to −25 h after administration of a nanoparticle composition containing compounds of the disclosure, compared to a composition containing MC3. Numbers 1-13 refer to compositions containing the following: 1: Compound 73, 2: Compound 80, 3: Compound 70; 4: Compound 81; 5: Compound 69; 6: Compound 82; 7: Compound 83; 8: Compound 62; 9: Compound 84; 10: Compound 85; 11: Compound 86; 12: Compound 87; 13: MC3. […]

Series [10] deals with GFP mRNA expression in liver cells. Put plainly: Mouse liver immunohistochemistry (IHC) of GFP after GFP mRNA LNP. Format: in vivo, CD-1 mouse; LDLR knockout mouse. The settings on record: i.v. 0.5 mpk; MC3: CD-1 mouse, 6h; Compound 4: LDLR knockout mouse, 8h. The protocol: FIG. 11 is a pair of images comparing the results of a mouse liver immunohistochemistry (IHC) using mRNA expressing green fluorescent protein (GFP) after administration of nanoparticle compositions containing Compound 4 and MC3.
FIG. 16 is a graph showing GFP levels in the livers of LDLR knockout mice at 30 min to 24 h after intravenous administration of an eGFP RNA in a lipid composition containing Compound 4. The liver GFP levels were determined via IHC. The square markers represent the number of GFP positive cells following administration of a dose of 0.1 mpk of the composition. The circular markers represent the number of GFP positive cells following administration of a dose of 0.5 mpk of the composition.

Series [11] in a line: Lipid clearance: % dose remaining in mice (liver) 6 h and 24 h after administration of nanoparticle compositions. Format: in vivo, CD-1 mice. The settings on record: Table 7c, 24 hr; species not given.

As to `CCCCCCCCCN(CCCCCCCCC)CCN(CCCCCCCCC)CC(=O)N1CCN(C(=O)CN(CCCCCCCCC)CCCC(=O)OCCCCC)CC1` [Compound 45, Pentyl 4-((2-(4-(N-(2-(dinonylamino)ethyl)-N-nonylglycyl)piperazin-1-yl)-2-oxoethyl)(nonyl)amino)butanoate], in [1], the “Lipid/MC3 Luc CD-1 (mice)” value was found to be 6.50. Also, in series [2], the PDI amounted to 0.200. Also, the “% dose remaining Rat liver (48 h)” value in series [3] is given as 8.57%.

With `CCCCCCCCCN(CCCCCCCCC)CCC1CCN(C(=O)CN(CCCCCCCCC)CCN(CCCCCCCCC)CCCCCCCCC)CC1` [Compound 49, 2-((2-(Dinonylamino)ethyl)(nonyl)amino)-1-(4-(2-(dinonylamino)ethyl)piperidin-1-yl)ethan-1-one], the “Lipid/MC3 Luc CD-1 (mice)” value in [1] is listed as 5.23. In series [2], this molecule gave a PDI of 0.200. Moreover, the “% dose remaining Rat liver (48 h)” value in series [3] amounted to 38.45%.

As to `CCCCC/C=C\C/C=C\CCCCCCCCC1(CCCCCCCC/C=C\C/C=C\CCCCC)CC(OC(=O)CCCN(C)C)C1` [Compound 21-2, 3,3-Di((9Z,12Z)-octadeca-9,12-dien-1-yl)cyclobutyl 4-(dimethylamino)butanoate], in series [4], the “Total flux in organs, comparison in words over the organs of the table named” value (shortened to “Total flux … over the organs of the table named”) is listed as “lowest expression in each organ”.

`CCCCCCCCCCCCN(CCCCCCCCCCCC)CCN(CCCCCCCCCCCC)CCN1CCN(CCN(CCCCCCCCC)CCCCCCCCC)CC1` [Compound 23, N^1-(2-(4-(2-(Dinonylamino)ethyl)piperazin-1-yl)ethyl)-N^1,N^2,N^2 tridodecylethane-1,2-diamine]: in [5] (DOPE formulation of Table 5), the “hEPO (pg/mL) 3 hours” value came to 249213 pg/mL, the “hEPO (pg/mL) 6 hours” value is listed as 275440 pg/mL and the “hEPO (pg/mL) 24 hours” value was determined as 120104 pg/mL. In [5] (DSPC formulation of Table 5), the “hEPO (pg/mL) 3 hours” value worked out at 86627 pg/mL, the “hEPO (pg/mL) 6 hours” value is listed as 71360 pg/mL and the “hEPO (pg/mL) 24 hours” value worked out at 29008 pg/mL. Also, in series [2], the PDI is given as 0.058. Also, the “Tolerability / toxicity in rats (FIG. 8)” value in series [6] is “toxic”. For the same molecule, the “Luc expression in mice compared with MC3 (Table 7a)” value in series [7] (mice, in words) is recorded as “several fold higher”.

Consider `CCCCCCCCCCCCN(CCCCCCCCCCCC)CCN(CCCCCCCCCCCC)CCN1CCN(CCN(CCCCCCCCCCCC)CCCCCCCCCCCC)CC1` [KL22, N1-[2-(didodecylamino)ethyl]-N1,N4,N4-tridodecyl-1,4-piperazinediethanamine, reference compound], for which the “Lipid/KL22 AUC LDLr−/− mice 0.5 mpk, LDLr” value in series [8] was 1. Besides, the “hEPO expression in rats (FIG. 8)” value in [5] (rats, 2 mpk, i.v. (Graph A), in words) is reported as “do not express hEPO in rats”. Further, the “Tolerability / toxicity in rats (FIG. 8)” value in series [6] is listed as “toxic”.

For the molecule `CCCCC/C=C\C/C=C\CCCCCCCCC1(CCCCCCCC/C=C\C/C=C\CCCCC)CCC(OC(=O)CCCN(C)C)C1` (centres unmarked) [Compound 21-4, 3,3-Di((9Z,12Z)-octadeca-9,12-dien-1-yl)cyclopentyl 4-(dimethylamino)butanoate], the “Total flux … over the organs of the table named” value in series [4] is given as “lowest expression in each organ”.

Regarding `CCCCCCCCCCCCN(CCCCCCCCCCCC)CCN(CCCCCCCCCCCC)CCN1CCN(CCN(CCCCCCCCC)CCCCCCCCC)CC1` [23 (DOPE)], the “Lipid/MC3 hEPO CD-1 (mice)” value in [9] is on record as 2.4. Besides, the “Lipid/MC3 hEPO S.D. (rats)” value in series [5] (hEPO expression relative to MC3, S.D. rats, intravenous) was determined as 0.21. For the same molecule, the concentration at 48 h in series [3] (liver, 48 hours after administration, read-out: Lipid in liver) was determined as 32900 ng/g; in series [3] (spleen, 48 hours after administration, read-out: Lipid in spleen), 26100 ng/g. Further, the “% remaining dose in liver” value in series [3] (liver, 48 hours after administration) was 51.4%. In addition, the “% remaining dose in spleen” value in series [3] (spleen, 48 hours after administration) is 2.72%.

As for `CCCCCC=CCC=CCCCCCCCCC(CCCCCCCCC=CCC=CCCCCC)OC(=O)CCCN(C)C` (centres unmarked) [MC3, heptatriaconta-6,9,28,31-tetraen-19-yl 4-(dimethylamino)butanoate, reference compound], the “GFP protein expression in liver cell types (IHC, FIG. 11)” value in [10] is “observed in both hepatocytes and Kupffer cells”. For the same molecule, in series [8], the “Lipid/KL22 AUC LDLr−/− mice 0.5 mpk, LDLr” value was found to be 0.15. The “Lipid/MC3 Luc CD-1 (mice)” value in series [1] is 1. Further, the “Lipid/MC3 AUC CD-1 mice 0.5 mpk” value in series [1] (Table 7b, Luc expression, CD-1 mice, 0.5 mpk) was determined as 1. Moreover, in series [5] (rats i.v., 3, 6, 24 hours), the “hEPO expression at each time point, comparison in words (Table 6)” value is recorded as “highest hEPO expression”. Moreover, the “Size (nm)” value in series [2] (Table 20-1) came to 84.0 nm. Further, in series [3], the “% dose remaining Rat liver (48 h)” value is recorded as 43.11%. The “Total flux (Luc expression), comparison in words over the time points of the table named” value in series [7] (mice i.v. 0.5 mg/kg, 3, 6, 24 hours, 0.5 mg/kg) is on record as “highest total flux; also recorded: highest luciferase expression”. The “Total flux … over the organs of the table named” value in series [4] (0.5 mg/kg) is “highest total flux; also recorded: highest expression in each organ”.

Consider `CCCCCCCCCN(CCCCCCCCC)CCN(CCCCCCCCC)CC(=O)N1CCN(C(=O)CN(CCCC(=O)OCCCCC)CCCC(=O)OCCCCC)CC1` [Compound 72, Dipentyl 4,4′-((2-(4-(N-(2-(dinonylamino)ethyl)-N-nonylglycyl)piperazin-1-yl)-2-oxoethyl)azanediyl)dibutyrate], for which the “% Dose Remaining 24 hr” value in series [11] was 6.40%. Further, the “Liver/Spleen Ratio” value in series [1] (Table 7c) stood at 6. In series [1] (Table 7c, AUC relative to MC3), the “Lipid/MC3 AUC” value was found to be 0.46.

In the case of `CCCCCCCCCCCCCCN(CCCCCCCCCCCCCC)CCN1CCN(CCN(CCCCCCCCC)CCN(CCCCCCCCC)CCCCCCCCC)CC1` [Compound 20, N^1-(2-(4-(2-(Ditetradecylamino)ethyl)piperazin-1-yl)ethyl)-N^1,N^2,N^2-trinonylethane-1,2-diamine], in series [1], the “Lipid/MC3 Luc CD-1 (mice)” value was found to be 5.0. Moreover, in series [2], the PDI is 0.150. Besides, the “Total flux … over the organs of the table named” value in series [4] is recorded as “highest total flux”.
